Patent publication US20090270490A1, “METHODS INVOLVING ALDOSE REDUCTASE INHIBITION” (THE BOARD OF REGENTS OF THE UNIVERSITY OF TEXAS SYSTEM, priority 2008, published 2009)

Legend:
[1] = tested on: α-SMA, β-crystallin and ICAM-1 expression; test: Immunohistochemical analysis of flat-mounted pig eye capsular bags; format: cell-based; conditions: 7 days of culture; sorbinil 50 μM, fidarestat 30 μM
Procedure: (§1) Pig eye capsular bags were prepared by phacoemulsification followed by capsulorhexis and incubated in Dulbecco's Modified Eagle's Medium (DMEM) supplemented with 10% FBS and 1% penicillin and streptomycin without or with AR inhibitors, sorbinil (50 μM) and fidarestat (10-30 μM) for 7 days in 5% CO2 condition at 37° C. Medium was replaced with fresh medium without or with AR inhibitors every day. At the end of incubation, capsular bags were examined under the dissection microscope, cut into four pieces and flat mounted on glass slide with cellular side facing up. The pieces of capsular bags were fixed with 4% paraformaldehyde for 3-4 h at 4° C. After fixation, they were washed, transferred to 70% alcohol and stored at 4° C. until used for immunohistochemical analysis.
The capsular bag specimens flat mounted on slides were washed thrice with PBS and incubated with blocking solution containing 2% BSA, 0.1% Triton-X100, 5% normal goat serum for 1 h at room temperature. Subsequently specimens were washed, incubated with antibodies against α-SMA, β-crystallin, PCNA, and ICAM-1 for 1 h at room temperature. The slides were stained with either LSAB-HRP system (Dako, Carpinteria, Calif.) or incubated with respective FITC labeled secondary antibodies. The samples were examined by using Nikon epifluoroscence microscope (EPI-800 microscope) connected to a computer with Metamorph software.

NF-κB DNA binding = test: Electrophoretic mobility shift assay (EMSA) of NF-κB in HLEC; format: cell-based, human; conditions: inhibitor 20 μM, no b-FGF
Procedure: Adenovirus SV-40 viral DNA-transformed human lens epithelial cells (HLE-B3; HLEC) were purchased from ATCC. Cells were maintained in DMEM supplemented with 20% heat-inactivated FBS, and 50 μg/ml gentamicin. The cells were grown in a humidified incubator at 37° C. and 5% CO2. The HLEC were pretreated with 20 μM of AR inhibitors sorbinil or zopolrestat for overnight in medium containing 0.5% FBS followed by stimulation with various concentrations (0-100 ng/mL) of b-FGF for 24 h and cell viability and expression of α-SMA, β-crystallin and ICAM-1 was quantified. To investigate the effect of b-FGF on NF-κB and MAPK activation, HLEC were starved in medium containing 0.5% FBS with or without AR inhibitors for overnight. The cells were washed with serum-free medium followed by incubation in serum-free medium without or with AR inhibitor containing 50 ng/mL b-FGF for different time intervals.
The HLEC in 150 cm^2 culture flasks were pretreated without or with AR inhibitors for 24 h in serum-free medium, followed by treatment with b-FGF (50 ng/ml) for 1 h at 37° C. The nuclear extracts were prepared as described earlier (Ramana et al., 2003). The Consensus oligonucleotides for NF-κB transcription factors were 5′-end labeled using T4 polynucleotide kinase. EMSA was performed as described earlier (Ramana et al., 2003.). […]

[2] = tested on: lens epithelial cells in pig eye capsular bags; test: Lens epithelial cell growth in pig eye capsular bags (trypan blue cell counting); format: cell-based; conditions: 7 days culture
Procedure: as §1
The pig eye capsular bags were incubated for 7 days as described above. The lens epithelial cells were detached from capsular bags by incubating with 0.25% trypsin-EDTA solution. The trypsinized cells were harvested, washed with PBS and re-suspended in PBS. To determine cell growth, equal volumes of cell suspension and trypan blue were mixed and the cells which excluded trypan blue dye were counted manually by using a hemocytometer.
Phacoemulsification technique for cataract surgery in humans was used to operate enucleated pig eyes. After removing the lens, a capsular tension ring was inserted in the capsular bag. The capsular bag was then cultured in complete growth-medium without or with AR inhibitors. […] After 7 days in culture, the ring was removed and the cells were harvested by trypsinization. The harvested cells were counted using trypan blue exclusion principle.

| basal activity of NF-κB with inhibitor alone (NF-κB DNA binding) | SMILES | expression of α-SMA and β-crystallin in capsular bags (immunohistochemistry) [1] | inhibition at 50 µM ([2]; Sus scrofa, Epithelial cell, 168 h, sorbinil 50 μM, pig eye capsular bags, vs control) [%] | most effective dose at which LEC growth was significantly (p<0.001) inhibited ([2]; doses 10-30 μM tested) [µM] | inhibiting the growth of LEC in pig eye capsular bags ([2]; fidarestat 10-30 μM) |
| --- | --- | --- | --- | --- | --- |
| did not affect | O=C1NC(=O)[C@@]2(CCOc3ccc(F)cc32)N1 [sorbinil, (S)-6-fluoro-2,3-dihydrospiro[4H-1-benzopyran-4,4′-imidazolidine]-2′,5′-dione] | only few cells expressed α-SMA and β-crystallin | ~74 |  |  |
|  | NC(=O)[C@@H]1C[C@]2(NC(=O)NC2=O)c2cc(F)ccc2O1 [fidarestat, (2S,4S)-2-aminoformyl-6-fluoro-spiro[chroman-4,4′-imidazolidine]-2′,5′-dione] |  |  | 30 | dose-dependent response |
| did not affect | O=C(O)Cc1nn(Cc2nc3cc(C(F)(F)F)ccc3s2)c(=O)c2ccccc12 [zopolrestat] |  |  |  |  |
